Measurements as given in US10624883B2, “Pulmonary hypertension preventative or therapeutic agent containing component exhibiting selenoprotein P activity-inhibiting effect” (priority 2016, dated 2020).
“Also recorded” adds a separate entry of the source.

Columns and labels:
[1] = system: hypoxia-induced pulmonary hypertension mouse model; experiment: Hypoxia-induced pulmonary hypertension mouse model (RVSP, right ventricular hypertrophy); format: in vivo; details: 10% O2 hypoxia, day 28
Procedure: Eight-week-old male C57BL6/J mice (n=8 per group) were administered sanguinarine (5 mg/kg/day, daily for 28 days, oral administration). A product available from SSX (Cat. No. 1845, Sanguinarine Chloride 10 mg) was used as sanguinarine. A preparation method for a test solution for a treatment group was as follows: sanguinarine was first dissolved at 100 μg/μl in 100% DMSO and the solution was further dissolved in phosphate buffered saline (PBS) so that the final concentration of sanguinarine was 1 μg/μl. A test solution for a control group was prepared by dissolving DMSO at the same concentration in PBS (1% DMSO).
From the test starting day, the mice were bred under a 10% O2 hypoxic environment to generate a hypoxia-induced pulmonary hypertension mouse model. From the same day, the test solutions for the control group and the treatment group were directly administered into the stomachs of the mice once daily through the use of a probe for mice. Regarding doses, the mice were measured for their body weights daily during a test period, and doses were calculated separately for the mice so as to achieve 5 mg/kg/day.
An administration period (=hypoxic breeding period) was 28 days.
After daily administration for 28 days, pulmonary hemodynamics and right ventricular hypertrophy were assessed at the end point (on day 28 after the start of hypoxic stimulation). The assessment of pulmonary hemodynamics was performed by directly measuring right ventricular systolic pressure (RVSP) with a pressure measurement catheter (Transonic Scisense) inserted into the right jugular vein. In addition, the assessment of right ventricular hypertrophy was performed by measuring right ventricular free wall (RV) weight in a dissected heart tissue to calculate its ratio to left ventricle plus septum (LV+Septum) weight (RV/(LV+Septum)). RV/(LV+Septum) serves as an indicator of right ventricular hypertrophy. A larger numerical value for RV/(LV+Septum) indicates a higher degree of right ventricular hypertrophy. In addition, in order to assess pulmonary vascular remodeling, staining for α-smooth muscle actin (α-SMA) in a lung tissue section was performed on day 28. Pulmonary vascular remodeling was assessed by performing immunostaining for α-smooth muscle actin (α-SMA) in a lung tissue section and quantitatively assessing the extent of muscularization (classified into three stages, i.e., non-muscularization, partial muscularization, and full muscularization) of α-SMA-positive distal pulmonary arteries. Specifically, in each section, about 100 pulmonary arteries having diameters of from 20 μm to 70 μm were each assessed for a double elastic lamina. In this assessment, a pulmonary artery in which a double elastic lamina including an internal elastic lamina and an external elastic lamina was visible for less than 50% of the entire periphery of the pulmonary artery was considered non-muscularized, a pulmonary artery in which the double elastic lamina was visible for 50% or more and less than 100% of the entire periphery of the pulmonary artery was considered partially muscularized, and a pulmonary artery in which the double elastic lamina was visible throughout the entire periphery of the pulmonary artery was considered fully muscularized.
Eight-week-old male C57BL6/J mice (n=8 per group) were administered cinobufotalin (5 mg/kg/day, daily for 28 days, intraperitoneal administration). A product available from Sigma (Cat. No. C1147-10MG, Cinobufotalin 10 mg) was used as cinobufotalin. A preparation method for a test solution for a treatment group was as follows: cinobufotalin was first dissolved at 30 μg/μl in 100% DMSO and the solution was further dissolved in PBS so that the final concentration of cinobufotalin was 0.3 μg/μl. A test solution for a control group was prepared by dissolving DMSO at the same concentration in PBS (1% DMSO). […]

[2] = system: selenoprotein P protein; experiment: Western blotting of selenoprotein P protein in lungs of hypoxia-induced pulmonary hypertension mice; format: in vivo, mouse; details: C57BL/6 mice, 5 mg/kg/day oral, daily for 28 days, 10% hypoxia
Procedure: In addition, regarding sanguinarine, C57BL/6 mice (n=8 per group) were administered sanguinarine (5 mg/kg/day, daily for 28 days, oral administration). At the same time, the mice were bred under a 10% hypoxic environment. Thus, a hypoxia-induced pulmonary hypertension mouse model was generated and investigated.

[3] = system: Sugen/hypoxia rat model; experiment: Sugen/hypoxia-induced pulmonary hypertension rat model (RVSP, RVH); format: in vivo; details: 5 mg/kg oral for 28 days, started day 21 after hypoxia+SU5416
Procedure: In this test, littermates or vehicle treatment groups were used as controls. A Sugen/hypoxia-induced hypertension rat model was used to assess pulmonary hypertension (PH) (Non-patent Literature 4). In order to assess the development of pulmonary hypertension, right ventricular systolic pressure (RVSP) and right ventricular hypertrophy (RVH) were measured (Non-patent Literatures 4 to 6).
For right heart catheterization, a 1.4-F (for rats) pressure measurement catheter (Transonic Scisense) was inserted into the right jugular vein and advanced into the right ventricle to measure RVSP (Non-patent Literature 7).
In the Sugen/hypoxia model, rats (Sprague-Dawley, male, 7- to 10-week-old) were injected subcutaneously with a VEGF-receptor inhibitor SU5416 (Sigma-Aldrich, St Louis, Mo.) (20 mg per kg body weight) under isoflurane anesthesia and were then exposed to hypoxia (10% O2) for 3 weeks. […] All data were analyzed using the PowerLab data acquisition system (AD Instruments, Bella Vista, Australia) and were averaged over 50 sequential beats (Non-patent Literatures 4 to 6).
Formaldehyde-fixed dry hearts were dissected and the right ventricular free wall (RV) was removed from the left ventricle (LV) and septum. The ratio of right ventricular free wall (RV) weight to left ventricle plus septum (LV+Septum) weight [RV/(LV+S)] was measured to assess the extent of RVH (Non-patent Literature 4). […]

[4] = system: SeP; experiment: SeP protein levels in lungs of Sugen/hypoxia rats; format: in vivo, rat; details: 5 mg/kg oral for 28 days, hypoxia+SU5416 rats
Procedure: (§1) Rats (Sprague-Dawley, male, 7- to 10-week-old) were injected subcutaneously with a VEGF-receptor inhibitor SU5416 (Sigma-Aldrich) (20 mg per kg body weight) under isoflurane anesthesia and were then exposed to hypoxia (10% O2) for 3 weeks (hypoxia+SU5416). On day 21, the rats were randomized to be orally administered sanguinarine (5 mg per kg body weight) or vehicle under normoxia (21% O2) for 4 weeks. The vehicle administration group is expressed as vehicle controls. In addition, rats injected with saline on day 1 and exposed to normoxia for 7 weeks were used as (normoxic) controls. […] On day 49, the rats were anesthetized with isoflurane (1.0%) to measure RVSP, RVH, and pulmonary vascular remodeling. Thus, the development of PH was assessed.
FIG. 10(D) includes an image and graph for showing quantification of SeP protein levels in normoxic control rats or hypoxia+SU5416 rats with or without sanguinarine treatment. Data represent the mean±SEM. *p<0.05. Comparisons of parameters were performed with one-way or two-way ANOVA and Tukey's HSD test for multiple comparisons.

[5] = Body weight and food consumption in Sugen/hypoxia rats; format: in vivo, rat; details: 5 mg/kg oral for 28 days
Procedure: as §1
FIG. 10(B) is a graph for showing the time-course of body weight from the starting point of administration of sanguinarine or vehicle for 4 weeks in Sugen/hypoxia rats (n=12). Data represent the mean±SEM.

[6] = 5 mg/kg/day intraperitoneal, daily for 28 days
[7] = 1 mg/kg/day intraperitoneal, alternate days for 28 days
[8] = 5 mg/kg/day oral, daily for 28 days

## CC(=O)OC1C(c2ccc(=O)oc2)C2(C)CCC3C(CCC4(O)CC(O)CCC34C)C23OC13 [cinobufotalin, [(1R,2R,2aR,3aS,5aS,7S,9aR,11aR)-5a,7-dihydroxy-9a,11a-dimethyl-1-(2-oxo-2H-pyran-5-yl)hexadecahydronaphtho[1′,2′:6,7]indeno[1,7a-b]oxiren-2-yl acetate]]
[1]; [6]
  right ventricular hypertrophy (RV/(LV+Septum)) vs control group: significantly reduced
  right ventricular systolic pressure vs control group: significantly reduced

## COC(=O)[C@]1(C)CC[C@]2(C)CC[C@]3(C)C4=CC=C5C(=CC(=O)C(O)=C5C)[C@]4(C)CC[C@@]3(C)[C@@H]2C1 [pristimerin, methyl (2R,4aS,6aS,12bR,14aS,14bR)-10-hydroxy-2,4a,6a,9,12b,14a-hexamethyl-11-oxo-1,2,3,4,4a,5,6,6a,11,12b,13,14,14a,14b-tetradecahydropicene-2-carboxylate]
[1]; [7]
  right ventricular hypertrophy (RV/(LV+Septum)) vs control group: significantly reduced
  right ventricular systolic pressure vs control group: significantly reduced

## C[n+]1cc2c3c(ccc2c2ccc4cc5c(cc4c21)OCO5)OCO3 [sanguinarine]
[2]
  selenoprotein P protein expression in the lungs vs control: significantly suppressed
[1]; [8]
  right ventricular hypertrophy (RV/(LV+Septum)) vs control group: significantly reduced
  right ventricular systolic pressure vs control group: significantly reduced
[3]
  RVH [RV/(LV+S)] vs vehicle controls: reduced
  RVSP vs vehicle controls: reduced
[4]
  SeP expression in the lungs: significantly reduced
[5]
  influence on body weight vs vehicle control: no significant differences; also recorded: no influence
  influence on food consumption vs vehicle control: no significant differences; also recorded: no influence
